Assay results taken from patent EP2649091B1, “IMMUNE RESTRICTED PEPTIDES WITH INCREASED EFFICACY” (Stichting Het Nederlands Kanker Instituut, priority 2010, dated 2012).
ALG = not defined here; PHG = not defined here

Columns and labels:
[1] = target: HLA-A0201 (Homo sapiens, UniProt P04439, D140Y/D185E/D98H/E176V/E277Q/G131W/G231S/I119V/I121R/I166T/I218V/L300P/L318F/N151K/N90K/P208A/P217A/Q86G/Q94H/R138H/R169H/T345S); assay type: binding
[2] = system: SVYDFFVWL (TRP-2 180-188) reactive T cells; experiment: T cell activation time course assay, IFNγ production (FACS), TRP-2 epitope; conditions: for % CD8+ T cells producing IFN-γ peptide concentrations in picomolar 24H 0.5 / Geometric mean IFN-γ in arbitrary fluorescence units peptide concentrations in picomolar 24H 0.5 / % CD8+ T cells producing IFN-γ peptide concentrations in picomolar 48H 0.5 / Geometric mean IFN-γ in arbitrary fluorescence units peptide concentrations in picomolar 48H 0.5: peptide 0.5 pM; for % CD8+ T cells producing IFN-γ peptide concentrations in picomolar 24H 50 / Geometric mean IFN-γ in arbitrary fluorescence units peptide concentrations in picomolar 24H 50 / % CD8+ T cells producing IFN-γ peptide concentrations in picomolar 48H 50 / Geometric mean IFN-γ in arbitrary fluorescence units peptide concentrations in picomolar 48H 50: peptide 50 pM; for % CD8+ T cells producing IFN-γ peptide concentrations in picomolar 24H 5·10^3 / Geometric mean IFN-γ in arbitrary fluorescence units peptide concentrations in picomolar 24H 5·10^3 / % CD8+ T cells producing IFN-γ peptide concentrations in picomolar 48H 5·10^3 / Geometric mean IFN-γ in arbitrary fluorescence units peptide concentrations in picomolar 48H 5·10^3: peptide 5·10^3 pM
[3] = system: HLA-A2::Mart-1(26-35) reactive T cells stimulated by T2 cells; experiment: T cell activation time course assay, IFNγ production (FACS), Mart-1 epitope; assay type: cell-based; conditions: for % CD8+ T cells producing IFN-γ 0H / Geometric mean IFN-γ in arbitrary fluorescence units 0H: time point 0H (basal); for % CD8+ T cells producing IFN-γ 2H / Geometric mean IFN-γ in arbitrary fluorescence units 2H: time point 2H; for % CD8+ T cells producing IFN-γ 4H / Geometric mean IFN-γ in arbitrary fluorescence units 4H: time point 4H; for % CD8+ T cells producing IFN-γ 24H / Geometric mean IFN-γ in arbitrary fluorescence units 24H: time point 24H; for % CD8+ T cells producing IFN-γ 24H / Geometric mean IFN-γ in arbitrary fluorescence units 24H / % CD8+ T cells producing IFN-γ 48H / Geometric mean IFN-γ in arbitrary fluorescence units 48H: free peptide washed away; for % CD8+ T cells producing IFN-γ 48H / Geometric mean IFN-γ in arbitrary fluorescence units 48H: time point 48H

Substance	% inhibition at T=4H and T=24H FP 4h [1] [%]	% inhibition at T=4H and T=24H FP 24h [1] [%]	% CD8+ T cells producing IFN-γ peptide concentrations in picomolar 24H 0.5 [2] [%]	Geometric mean IFN-γ in arbitrary fluorescence units peptide concentrations in picomolar 24H 0.5 [2]	% CD8+ T cells producing IFN-γ peptide concentrations in picomolar 24H 50 [2] [%]	Geometric mean IFN-γ in arbitrary fluorescence units peptide concentrations in picomolar 24H 50 [2]	% CD8+ T cells producing IFN-γ peptide concentrations in picomolar 24H 5·10^3 [2] [%]	Geometric mean IFN-γ in arbitrary fluorescence units peptide concentrations in picomolar 24H 5·10^3 [2]	% CD8+ T cells producing IFN-γ peptide concentrations in picomolar 48H 0.5 [2] [%]	Geometric mean IFN-γ in arbitrary fluorescence units peptide concentrations in picomolar 48H 0.5 [2]	% CD8+ T cells producing IFN-γ peptide concentrations in picomolar 48H 50 [2] [%]	Geometric mean IFN-γ in arbitrary fluorescence units peptide concentrations in picomolar 48H 50 [2]	% CD8+ T cells producing IFN-γ peptide concentrations in picomolar 48H 5·10^3 [2] [%]	Geometric mean IFN-γ in arbitrary fluorescence units peptide concentrations in picomolar 48H 5·10^3 [2]	also measured
[PHG][NVA]AGIGILT[ALG] ({PHG-NVA}-AGIGILT-{ALG}; reading uncertain; also: printed as [PHG][NVA]AGIGILT[ALG])	65	64	–	–	–	–	–	–	–	–	–	–	–	–	IC50 Ratio [1]: 18.9
[am-phg][CpALA]YDFFVW[PRG]	80	80	1	94 arbitrary fluorescence units	1	69 arbitrary fluorescence units	14	95 arbitrary fluorescence units	0	76 arbitrary fluorescence units	0	66 arbitrary fluorescence units	4	76 arbitrary fluorescence units	–
[PHG][2-AOC]YDFFVW[PRG]	83	78	0	95 arbitrary fluorescence units	1	68 arbitrary fluorescence units	20	120 arbitrary fluorescence units	1	79 arbitrary fluorescence units	0	78 arbitrary fluorescence units	0	78 arbitrary fluorescence units	–
[PHG][NVA]YDFFVWL	79	76	0	76 arbitrary fluorescence units	15	94 arbitrary fluorescence units	29	263 arbitrary fluorescence units	0	85 arbitrary fluorescence units	2	–	30	188 arbitrary fluorescence units	–
[am-phg][2-AOC]YDFFVWL	94	87	0	78 arbitrary fluorescence units	12	82 arbitrary fluorescence units	31	215 arbitrary fluorescence units	0	88 arbitrary fluorescence units	1	70 arbitrary fluorescence units	30	143 arbitrary fluorescence units	–
[CSME][2-AOC]AGIGILT[PRG]	72	70	–	–	–	–	–	–	–	–	–	–	–	–	IC50 Ratio [1]: 14.8
[CSME][2-AOC]AGIGILTV	–	–	–	–	–	–	–	–	–	–	–	–	–	–	% CD8+ T cells producing IFN-γ 0H ([3]; peptide 0.5 pM): 0%; Geometric mean IFN-γ in arbitrary fluorescence units 0H ([3]; peptide 0.5 pM): 101 arbitrary fluorescence units; % CD8+ T cells producing IFN-γ 2H ([3]; peptide 0.5 pM): 27%; Geometric mean IFN-γ in arbitrary fluorescence units 2H ([3]; peptide 0.5 pM): 219 arbitrary fluorescence units; % CD8+ T cells producing IFN-γ 4H ([3]; peptide 0.5 pM): 29%; Geometric mean IFN-γ in arbitrary fluorescence units 4H ([3]; peptide 0.5 pM): 368 arbitrary fluorescence units; % CD8+ T cells producing IFN-γ 24H ([3]; peptide 0.5 pM): 18%; Geometric mean IFN-γ in arbitrary fluorescence units 24H ([3]; peptide 0.5 pM): 167 arbitrary fluorescence units; % CD8+ T cells producing IFN-γ 48H ([3]; peptide 0.5 pM): 7%; Geometric mean IFN-γ in arbitrary fluorescence units 48H ([3]; peptide 0.5 pM): 119 arbitrary fluorescence units; % CD8+ T cells producing IFN-γ 0H ([3]; peptide 50 pM): 0%; Geometric mean IFN-γ in arbitrary fluorescence units 0H ([3]; peptide 50 pM): 111 arbitrary fluorescence units; % CD8+ T cells producing IFN-γ 2H ([3]; peptide 50 pM): 28%; Geometric mean IFN-γ in arbitrary fluorescence units 2H ([3]; peptide 50 pM): 249 arbitrary fluorescence units; % CD8+ T cells producing IFN-γ 4H ([3]; peptide 50 pM): 31%; Geometric mean IFN-γ in arbitrary fluorescence units 4H ([3]; peptide 50 pM): 563 arbitrary fluorescence units; % CD8+ T cells producing IFN-γ 24H ([3]; peptide 50 pM): 27%; Geometric mean IFN-γ in arbitrary fluorescence units 24H ([3]; peptide 50 pM): 397 arbitrary fluorescence units; % CD8+ T cells producing IFN-γ 48H ([3]; peptide 50 pM): 20%; Geometric mean IFN-γ in arbitrary fluorescence units 48H ([3]; peptide 50 pM): 288 arbitrary fluorescence units
[am-phg]LAGIGILT[PRG]	–	–	–	–	–	–	–	–	–	–	–	–	–	–	% CD8+ T cells producing IFN-γ 0H ([3]; peptide 0.5 pM): 0%; Geometric mean IFN-γ in arbitrary fluorescence units 0H ([3]; peptide 0.5 pM): 94 arbitrary fluorescence units; % CD8+ T cells producing IFN-γ 2H ([3]; peptide 0.5 pM): 27%; Geometric mean IFN-γ in arbitrary fluorescence units 2H ([3]; peptide 0.5 pM): 214 arbitrary fluorescence units; % CD8+ T cells producing IFN-γ 4H ([3]; peptide 0.5 pM): 29%; Geometric mean IFN-γ in arbitrary fluorescence units 4H ([3]; peptide 0.5 pM): 345 arbitrary fluorescence units; % CD8+ T cells producing IFN-γ 24H ([3]; peptide 0.5 pM): 15%; Geometric mean IFN-γ in arbitrary fluorescence units 24H ([3]; peptide 0.5 pM): 159 arbitrary fluorescence units; % CD8+ T cells producing IFN-γ 48H ([3]; peptide 0.5 pM): 3%; Geometric mean IFN-γ in arbitrary fluorescence units 48H ([3]; peptide 0.5 pM): 103 arbitrary fluorescence units; % CD8+ T cells producing IFN-γ 0H ([3]; peptide 50 pM): 0%; Geometric mean IFN-γ in arbitrary fluorescence units 0H ([3]; peptide 50 pM): 105 arbitrary fluorescence units; % CD8+ T cells producing IFN-γ 2H ([3]; peptide 50 pM): 22%; Geometric mean IFN-γ in arbitrary fluorescence units 2H ([3]; peptide 50 pM): 249 arbitrary fluorescence units; % CD8+ T cells producing IFN-γ 4H ([3]; peptide 50 pM): 31%; Geometric mean IFN-γ in arbitrary fluorescence units 4H ([3]; peptide 50 pM): 480 arbitrary fluorescence units; % CD8+ T cells producing IFN-γ 24H ([3]; peptide 50 pM): 28%; Geometric mean IFN-γ in arbitrary fluorescence units 24H ([3]; peptide 50 pM): 342 arbitrary fluorescence units; % CD8+ T cells producing IFN-γ 48H ([3]; peptide 50 pM): 18%; Geometric mean IFN-γ in arbitrary fluorescence units 48H ([3]; peptide 50 pM): 215 arbitrary fluorescence units
